The results in this text go back to patent US8222229B2, “Peritoneal dialysis method” (Kowa Co., Ltd., priority 2002, dated 2012).

For this assay, the system named is HPMC (human peritoneal mesothelial cells). As to the kind of experiment: HPMC viability under high level glucose, cell counting (WST-1). Format: cell-based. To be noted: for effect on decrease in the viability of HPMC attributed to glucose (as measured by absorbance): preincubation 3 h with 0, 10, 100, 1,000 μM test substance, then 8 h in glucose 5.8 mM, 75 mM, 140 mM, WST-1. How it is done:
Peritoneal mesothelial cells (HPMC) were preincubated for three hours in culture media (M199) containing ATP (0, 10, 100, and 1,000 μM). The cells were washed with an HPMC culture medium (saline buffer) and then incubated for eight hours in culture media (M199) containing glucose at three different levels (5.8 mM, 75 mM, and 140 mM). HPMC viability was obtained through cell counting (WST-1).
Instead of ATP, adenosine, which is a metabolite of ATP, was employed to study the effect of adenosine on decrease in HPMC viability caused by high level glucose.
Prior to the step of preincubation with ATP-containing culture media in the procedure of Example 1, HPMC were preincubated for 30 minutes with each of the following selective ATP receptor antagonists: (1) Suramin (P2X, P2Y receptor antagonist; 10 μM), (2) Reactive Blue 2 (P2Y receptor antagonist; 30 μM), and (3) PPADS (P2X receptor antagonist; 10 μM). Thereafter, the test was performed as described in Example 1.

As for `Nc1ncnc2c1ncn2[C@@H]1O[C@H](COP(=O)(O)OP(=O)(O)OP(=O)(O)O)[C@@H](O)[C@H]1O` [ATP, adenosine triphosphate], the “effect on decrease in the viability of HPMC attributed to glucose (as measured by absorbance)” value is listed as “decrease in viability caused by high level glucose was significantly alleviated”. Further, the “ATP's effect on decrease in the viability of HPMC attributed to glucose after ATP receptor antagonist pretreatment” value (HPMC preincubated 30 min with Suramin 10 μM, Reactive Blue 2 30 μM or PPADS 10 μM before ATP preincubation, glucose 5.8, 75, 140 mM) is given as “no effect of alleviating reduction in HPMC viability”.
With `Nc1ncnc2c1ncn2[C@@H]1O[C@H](CO)[C@@H](O)[C@H]1O` [Adenosine, adenosine, reference compound], the “effect on decrease in the viability of HPMC attributed to glucose (as measured by absorbance)” value was “no effect of alleviating decrease in HPMC viability”.
